Reference: PubChem BioAssay AID2060495 (Molecular Pharmacology Branch, DTP, NCI, 2025)
Values belong to the compound of their own block, whether it stands above or below them.

System: 521955-158-R2-J5-PDC complex spheroid viability
Assay: Anticancer human tumor 521955-158-R2-J5-PDC patient-derived pancreatic carcinoma cell line growth inhibition [GQUAD]
Details: for IC50: curve of first compound; for viability, T/C: stronger effect = lower value
Outline: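 Viability of tumor cells grown as complex spheroids with endothelial and stromal cells, exposed to drug combinations. Top concentration at or near clinical Cmax (else 10 microM), diluted in half-log increments.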

[1] = second compound 0.0316 µM, first compound 0.0316 µM
[2] = second compound 0.0316 µM, first compound 0.1 µM
[3] = second compound 0.0316 µM, first compound 0.316 µM
[4] = second compound 0.0316 µM, first compound 1 µM
[5] = second compound 0.0316 µM, first compound 3.16 µM
[6] = second compound 0.0316 µM, first compound 10 µM
[7] = second compound 0.1 µM, first compound 0.0316 µM
[8] = second compound 0.1 µM, first compound 0.1 µM
[9] = second compound 0.1 µM, first compound 0.316 µM
[10] = second compound 0.1 µM, first compound 1 µM
[11] = second compound 0.1 µM, first compound 3.16 µM
[12] = second compound 0.1 µM, first compound 10 µM
[13] = second compound 0.316 µM, first compound 0.0316 µM
[14] = second compound 0.316 µM, first compound 0.1 µM
[15] = second compound 0.316 µM, first compound 0.316 µM
[16] = second compound 0.316 µM, first compound 1 µM
[17] = second compound 0.316 µM, first compound 3.16 µM
[18] = second compound 0.316 µM, first compound 10 µM
[19] = second compound 1 µM, first compound 0.0316 µM
[20] = second compound 1 µM, first compound 0.1 µM
[21] = second compound 1 µM, first compound 0.316 µM
[22] = second compound 1 µM, first compound 1 µM
[23] = second compound 1 µM, first compound 3.16 µM
[24] = second compound 1 µM, first compound 10 µM
[25] = second compound 3.16 µM, first compound 0.0316 µM
[26] = second compound 3.16 µM, first compound 0.1 µM
[27] = second compound 3.16 µM, first compound 0.316 µM
[28] = second compound 3.16 µM, first compound 1 µM
[29] = second compound 3.16 µM, first compound 3.16 µM
[30] = second compound 3.16 µM, first compound 10 µM
[31] = second compound 10 µM, first compound 0.0316 µM
[32] = second compound 10 µM, first compound 0.1 µM
[33] = second compound 10 µM, first compound 0.316 µM
[34] = second compound 10 µM, first compound 1 µM
[35] = second compound 10 µM, first compound 3.16 µM
[36] = second compound 10 µM, first compound 10 µM
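Further: spheroids exposed to agents for one week before reading.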
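Wherever viability, T/C is given: 100% = DMSO vehicle control viability.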

IC50 (second compound 0.0316 µM): < 31.6 nM
IC50 (second compound 0.1 µM): < 31.6 nM
IC50 (second compound 0.316 µM): < 31.6 nM
IC50 (second compound 1 µM): < 31.6 nM
IC50 (second compound 3.16 µM): < 31.6 nM
IC50 (second compound 10 µM): < 31.6 nM
SMILES: CC1COCCN1c1cc(-c2ccnn2C)c2ccnc(-c3ccn[nH]3)c2n1 (stereo not drawn) + Cc1cnc(CNC(=O)c2c(=O)c3ccc(N4CCCN(C)CC4)nc3n3c2sc2ccccc23)cn1
viability, T/C [1]: 33.3%
viability, T/C [2]: 10.8%
viability, T/C [3]: 10.1%
viability, T/C [4]: 11.2%
viability, T/C [5]: 14.3%
viability, T/C [6]: 20.8%
viability, T/C [7]: 28.9%
viability, T/C [8]: 12.6%
viability, T/C [9]: 10.6%
viability, T/C [10]: 10.2%
viability, T/C [11]: 12.9%
viability, T/C [12]: 15.9%
viability, T/C [13]: 29.5%
viability, T/C [14]: 16.6%
viability, T/C [15]: 13.1%
viability, T/C [16]: 11.2%
viability, T/C [17]: 12%
viability, T/C [18]: 14.7%
viability, T/C [19]: 19.1%
viability, T/C [20]: 14.2%
viability, T/C [21]: 10.4%
viability, T/C [22]: 9.64%
viability, T/C [23]: 12.4%
viability, T/C [24]: 10.6%
viability, T/C [25]: 18.9%
viability, T/C [26]: 12.2%
viability, T/C [27]: 11.1%
viability, T/C [28]: 8.14%
viability, T/C [29]: 10.1%
viability, T/C [30]: 8.5%
viability, T/C [31]: 15.4%
viability, T/C [32]: 12.7%
viability, T/C [33]: 10.5%
viability, T/C [34]: 10.9%
viability, T/C [35]: 7.61%
viability, T/C [36]: 8.53%

IC50 (second compound 0.0316 µM): < 31.6 nM
IC50 (second compound 0.1 µM): < 31.6 nM
IC50 (second compound 0.316 µM): < 31.6 nM
IC50 (second compound 1 µM): < 31.6 nM
IC50 (second compound 3.16 µM): < 31.6 nM
IC50 (second compound 10 µM): < 31.6 nM
SMILES: CC1COCCN1c1cc(C2(O)CC3CCC(C2)O3)c2cnn(-c3ccn[nH]3)c2n1 (stereo not drawn) + Cc1cnc(CNC(=O)c2c(=O)c3ccc(N4CCCN(C)CC4)nc3n3c2sc2ccccc23)cn1
viability, T/C [1]: 23.8%
viability, T/C [2]: 11.8%
viability, T/C [3]: 15.9%
viability, T/C [4]: 13.4%
viability, T/C [5]: 18.2%
viability, T/C [6]: 8.84%
viability, T/C [7]: 23.1%
viability, T/C [8]: 13%
viability, T/C [9]: 11.2%
viability, T/C [10]: 13.4%
viability, T/C [11]: 15.3%
viability, T/C [12]: 8.46%
viability, T/C [13]: 23.8%
viability, T/C [14]: 14.9%
viability, T/C [15]: 12.8%
viability, T/C [16]: 14.5%
viability, T/C [17]: 15.3%
viability, T/C [18]: 5.38%
viability, T/C [19]: 18.4%
viability, T/C [20]: 13.7%
viability, T/C [21]: 11.1%
viability, T/C [22]: 12.1%
viability, T/C [23]: 10.5%
viability, T/C [24]: 4.62%
viability, T/C [25]: 14.2%
viability, T/C [26]: 13.5%
viability, T/C [27]: 10.7%
viability, T/C [28]: 9.81%
viability, T/C [29]: 6.85%
viability, T/C [30]: 0.99%
viability, T/C [31]: 14.2%
viability, T/C [32]: 13.7%
viability, T/C [33]: 10.6%
viability, T/C [34]: 8.67%
viability, T/C [35]: 6.98%
viability, T/C [36]: 0.78%

IC50 (second compound 0.0316 µM): 614 nM
IC50 (second compound 0.1 µM): 543 nM
IC50 (second compound 0.316 µM): < 31.6 nM
IC50 (second compound 1 µM): < 31.6 nM
IC50 (second compound 3.16 µM): < 31.6 nM
IC50 (second compound 10 µM): < 31.6 nM
SMILES: CC1COCCN1c1cc(C2(S(C)(=N)=O)CC2)nc(-c2ccnc3[nH]ccc23)n1 (stereo not drawn) + Cc1cnc(CNC(=O)c2c(=O)c3ccc(N4CCCN(C)CC4)nc3n3c2sc2ccccc23)cn1
viability, T/C [1]: 80.3%
viability, T/C [2]: 86.1%
viability, T/C [3]: 82.4%
viability, T/C [4]: 26.1%
viability, T/C [5]: 9.1%
viability, T/C [6]: 10.6%
viability, T/C [7]: 59.4%
viability, T/C [8]: 60.2%
viability, T/C [9]: 76.2%
viability, T/C [10]: 32.7%
viability, T/C [11]: 12.3%
viability, T/C [12]: 10.4%
viability, T/C [13]: 42.2%
viability, T/C [14]: 46.2%
viability, T/C [15]: 53.2%
viability, T/C [16]: 32.8%
viability, T/C [17]: 13.7%
viability, T/C [18]: 11.3%
viability, T/C [19]: 31%
viability, T/C [20]: 24.5%
viability, T/C [21]: 23.4%
viability, T/C [22]: 23.7%
viability, T/C [23]: 15.4%
viability, T/C [24]: 11.1%
viability, T/C [25]: 21.3%
viability, T/C [26]: 23.6%
viability, T/C [27]: 21.5%
viability, T/C [28]: 19.3%
viability, T/C [29]: 13.6%
viability, T/C [30]: 9.15%
viability, T/C [31]: 16.2%
viability, T/C [32]: 19.1%
viability, T/C [33]: 20.9%
viability, T/C [34]: 22.8%
viability, T/C [35]: 14.3%
viability, T/C [36]: 7.66%

IC50 (second compound 0.0316 µM): 292 nM
IC50 (second compound 0.1 µM): 225 nM
IC50 (second compound 0.316 µM): < 31.6 nM
IC50 (second compound 1 µM): < 31.6 nM
IC50 (second compound 3.16 µM): < 31.6 nM
IC50 (second compound 10 µM): < 31.6 nM
SMILES: COc1ccc([C@@H](O)c2cc(-c3ncnc4cc(N5CCOCC5)ccc34)c(F)cc2Cl)nn1 + Cc1cnc(CNC(=O)c2c(=O)c3ccc(N4CCCN(C)CC4)nc3n3c2sc2ccccc23)cn1
viability, T/C [1]: 79.2%
viability, T/C [2]: 62.5%
viability, T/C [3]: 53.6%
viability, T/C [4]: 30.4%
viability, T/C [5]: 24.8%
viability, T/C [6]: 25.6%
viability, T/C [7]: 65.2%
viability, T/C [8]: 56.8%
viability, T/C [9]: 49.1%
viability, T/C [10]: 31.7%
viability, T/C [11]: 30.7%
viability, T/C [12]: 20.9%
viability, T/C [13]: 37.4%
viability, T/C [14]: 35.3%
viability, T/C [15]: 37%
viability, T/C [16]: 24.5%
viability, T/C [17]: 24.9%
viability, T/C [18]: 18.3%
viability, T/C [19]: 21.7%
viability, T/C [20]: 20.7%
viability, T/C [21]: 18.4%
viability, T/C [22]: 18.2%
viability, T/C [23]: 18.8%
viability, T/C [24]: 18.1%
viability, T/C [25]: 19.5%
viability, T/C [26]: 20.4%
viability, T/C [27]: 18.3%
viability, T/C [28]: 16.9%
viability, T/C [29]: 15.2%
viability, T/C [30]: 12%
viability, T/C [31]: 18.8%
viability, T/C [32]: 18.6%
viability, T/C [33]: 18.3%
viability, T/C [34]: 16.8%
viability, T/C [35]: 14.5%
viability, T/C [36]: 11.6%
